pKi: −log10 of the molar value. Calls of active or inactive are those of the source. The rule behind the calls is not given here. Peptide text beside a SMILES is read from it. * marks the point of attachment. NHPhenethyl = c1ccc(CCN*)cc1; Bz = O=C(c1ccccc1)*
Each compound was assayed against T1, Bifunctional purine biosynthesis protein ATIC (Homo sapiens, UniProt P31939) (assay: Average inhibition of AICAR formyltransferase at 25 uM and 50 uM concentration relative to cappsin 2; Inactive).
Target sequence in this assay (P31939 whole entry, looked up): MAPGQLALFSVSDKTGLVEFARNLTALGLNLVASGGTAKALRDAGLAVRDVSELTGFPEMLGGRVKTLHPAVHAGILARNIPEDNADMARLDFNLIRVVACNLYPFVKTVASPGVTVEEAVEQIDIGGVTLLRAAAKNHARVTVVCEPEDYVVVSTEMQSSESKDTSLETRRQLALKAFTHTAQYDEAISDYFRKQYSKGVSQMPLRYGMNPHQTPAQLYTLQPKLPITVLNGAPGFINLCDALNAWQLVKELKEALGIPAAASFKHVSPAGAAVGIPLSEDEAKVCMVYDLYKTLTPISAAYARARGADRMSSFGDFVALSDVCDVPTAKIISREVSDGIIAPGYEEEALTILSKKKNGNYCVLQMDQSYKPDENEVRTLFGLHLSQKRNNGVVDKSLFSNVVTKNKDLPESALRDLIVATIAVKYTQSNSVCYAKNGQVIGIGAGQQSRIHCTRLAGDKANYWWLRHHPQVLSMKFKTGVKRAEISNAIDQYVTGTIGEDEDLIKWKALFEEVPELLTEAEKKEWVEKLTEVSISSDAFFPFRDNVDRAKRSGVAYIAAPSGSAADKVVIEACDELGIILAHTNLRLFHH

SMILES | inhibition
O=C(CNC(=O)CNC(=O)c1ccccc1I)NCCc1ccccc1 | inactive
CCCNC(=O)CNC(=O)CNC(=O)c1cccc(I)c1 | inactive
O=C(CNC(=O)CNC(=O)c1ccccc1)NCCc1ccccc1 (Bz-Gly-Gly-NHPhenethyl) | inactive
O=C(CNC(=O)CNC(=O)c1cccc([N+](=O)[O-])c1)NCCc1ccccc1 | inactive
CNC(=O)CNC(=O)CNC(=O)c1cccc(I)c1 | inactive

More lines, now with the values ahead:

inhibition | SMILES
inactive | CN(CC(=O)NCCc1ccccc1)C(=O)CNC(=O)c1cccc(I)c1
inactive | O=C(CNC(=O)c1cccc(I)c1)NCC(=O)OCCc1ccccc1
inactive | Cc1cccc(C(=O)NCC(=O)NCC(=O)NCCc2ccccc2)c1
inactive | COc1cccc(C(=O)NCC(=O)NCC(=O)NCCc2ccccc2)c1
inactive | COC(=O)CN(CC(=O)NCCc1ccccc1)C(=O)CNC(=O)c1cccc(I)c1

Each compound was assayed against T1, Bifunctional purine biosynthesis protein ATIC (assay: Inhibition constant against AICAR formyltransferase).
Target sequence in this assay (P31939 whole entry): as the sequence (P31939 whole entry, looked up) above

SMILES | pKi
COc1ccc(CNC(=O)CN(CC(=O)NCCc2ccccc2)C(=O)CNC(=O)c2cccc(I)c2)cc1 | 5.51
O=C(CNC(=O)CNC(=O)c1cccc(I)c1)NCCc1ccccc1 | 5.10

Reference: ChEMBL document CHEMBL1139566, “Discovery of AICAR Tfase inhibitors that disrupt requisite enzyme dimerization” (Bioorg Med Chem Lett, 2005)
